Assay results from US20250236608A1, “EGFR INHIBITORS” (Blueprint Medicines Corporation, priority 2022, published 2025).

Columns and labels:
[1] = biological target: EGFR L858R (Homo sapiens (Human), UniProt P00533, L858R); assay: Biochemical EGFR inhibition assay, EGFR L858R; settings: Caliper mobility shift; 1.0 mM ATP or ATP Km; read-out: Enz EGFR_L858R IC50
[2] = biological target: EGFR (d746-750) (Homo sapiens (Human), UniProt P00533, DEL746-750); assay: Biochemical EGFR inhibition assay, EGFR (d746-750); settings: Caliper mobility shift; 1.0 mM ATP or ATP Km; read-out: Enz EGFR_Exon19-del746-750 IC50
[3] = biological target: pEGFR (Tyr1068) in PC-9 cells (Ex19Del) (Homo sapiens (Human), UniProt P00533, DEL746-750); assay: PC-9 pEGFR AlphaLISA assay; format: cell-based; settings: 4 hours incubation, p-EGFR (Tyr1068) AlphaLISA, read-out: Ext pEGFR_PC-9 Ex19Del IC50
Method in brief: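 Cells seeded in phenol-free DMEM with 10% FBS adhered overnight at 37° C./5% CO2, then were exposed for 4 hours to a 4-fold, 10-point compound dilution series. After lysis, phospho-EGFR was read by AlphaLISA SureFire Ultra, and IC50 was fitted from percent inhibition versus log concentration.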

Sequence of EGFR L858R (P00533 25-1210 L858R): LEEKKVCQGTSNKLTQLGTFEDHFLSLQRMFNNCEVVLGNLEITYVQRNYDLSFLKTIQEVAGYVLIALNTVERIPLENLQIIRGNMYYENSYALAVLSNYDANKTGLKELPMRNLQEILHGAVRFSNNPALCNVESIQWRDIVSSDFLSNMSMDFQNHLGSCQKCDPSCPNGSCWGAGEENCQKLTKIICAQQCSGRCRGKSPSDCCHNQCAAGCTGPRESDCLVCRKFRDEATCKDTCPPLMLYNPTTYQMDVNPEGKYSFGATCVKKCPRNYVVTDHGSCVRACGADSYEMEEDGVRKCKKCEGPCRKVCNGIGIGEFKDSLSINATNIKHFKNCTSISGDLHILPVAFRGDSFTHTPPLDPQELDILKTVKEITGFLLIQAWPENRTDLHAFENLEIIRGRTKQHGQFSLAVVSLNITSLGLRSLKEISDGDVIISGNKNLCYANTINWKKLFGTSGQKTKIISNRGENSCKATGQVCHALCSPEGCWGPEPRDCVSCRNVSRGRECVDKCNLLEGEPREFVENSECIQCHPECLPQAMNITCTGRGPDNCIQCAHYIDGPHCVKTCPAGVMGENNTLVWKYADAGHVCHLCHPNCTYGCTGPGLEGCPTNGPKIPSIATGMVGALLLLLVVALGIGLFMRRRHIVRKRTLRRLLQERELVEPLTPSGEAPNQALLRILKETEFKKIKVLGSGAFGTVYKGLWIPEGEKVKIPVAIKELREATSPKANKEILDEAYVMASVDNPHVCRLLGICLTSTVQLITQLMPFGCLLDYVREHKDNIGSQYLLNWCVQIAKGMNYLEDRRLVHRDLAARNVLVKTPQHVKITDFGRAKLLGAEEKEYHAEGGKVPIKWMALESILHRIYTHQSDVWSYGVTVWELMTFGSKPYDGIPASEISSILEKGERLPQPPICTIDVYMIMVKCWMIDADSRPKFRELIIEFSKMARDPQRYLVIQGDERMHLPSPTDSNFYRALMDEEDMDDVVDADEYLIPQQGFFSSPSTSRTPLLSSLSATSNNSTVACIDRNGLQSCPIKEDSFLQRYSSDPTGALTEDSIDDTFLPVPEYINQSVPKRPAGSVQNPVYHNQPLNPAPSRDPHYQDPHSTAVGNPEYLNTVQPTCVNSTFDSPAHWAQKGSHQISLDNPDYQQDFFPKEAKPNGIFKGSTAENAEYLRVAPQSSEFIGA
Sequence of pEGFR (Tyr1068) in PC-9 cells (Ex19Del) (P00533 other isoform, or with tags, fused parts or gaps del 746-750): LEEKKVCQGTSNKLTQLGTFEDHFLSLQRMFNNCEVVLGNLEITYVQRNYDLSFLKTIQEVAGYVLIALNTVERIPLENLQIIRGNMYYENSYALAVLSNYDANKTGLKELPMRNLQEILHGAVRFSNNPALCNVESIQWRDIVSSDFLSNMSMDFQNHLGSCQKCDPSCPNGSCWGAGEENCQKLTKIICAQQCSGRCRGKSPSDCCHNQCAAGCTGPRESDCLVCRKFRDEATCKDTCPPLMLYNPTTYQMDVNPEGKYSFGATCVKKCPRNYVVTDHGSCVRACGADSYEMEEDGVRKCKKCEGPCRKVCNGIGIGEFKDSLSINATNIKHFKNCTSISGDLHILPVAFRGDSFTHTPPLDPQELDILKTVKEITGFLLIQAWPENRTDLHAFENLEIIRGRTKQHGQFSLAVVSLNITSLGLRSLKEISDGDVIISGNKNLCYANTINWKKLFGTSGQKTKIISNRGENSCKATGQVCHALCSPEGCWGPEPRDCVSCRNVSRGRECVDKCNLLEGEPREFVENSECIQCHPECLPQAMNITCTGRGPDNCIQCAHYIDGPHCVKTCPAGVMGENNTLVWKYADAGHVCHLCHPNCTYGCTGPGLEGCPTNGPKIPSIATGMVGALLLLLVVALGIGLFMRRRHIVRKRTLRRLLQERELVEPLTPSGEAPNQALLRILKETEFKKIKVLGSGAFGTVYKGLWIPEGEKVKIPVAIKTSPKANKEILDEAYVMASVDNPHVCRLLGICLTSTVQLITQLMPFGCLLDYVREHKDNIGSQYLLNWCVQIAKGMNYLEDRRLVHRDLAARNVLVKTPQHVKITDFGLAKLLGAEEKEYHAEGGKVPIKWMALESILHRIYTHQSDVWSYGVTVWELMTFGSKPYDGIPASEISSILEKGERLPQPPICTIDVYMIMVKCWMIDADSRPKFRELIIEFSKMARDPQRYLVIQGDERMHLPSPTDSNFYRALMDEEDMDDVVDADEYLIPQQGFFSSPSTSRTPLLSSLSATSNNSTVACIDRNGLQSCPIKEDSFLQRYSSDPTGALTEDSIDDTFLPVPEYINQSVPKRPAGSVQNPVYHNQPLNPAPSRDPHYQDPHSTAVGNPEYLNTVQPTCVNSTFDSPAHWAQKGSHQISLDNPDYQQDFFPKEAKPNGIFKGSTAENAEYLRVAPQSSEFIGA
Sequence of EGFR (d746-750) (P00533 other isoform, or with tags, fused parts or gaps del 1-694/del 746-750 limits assumed): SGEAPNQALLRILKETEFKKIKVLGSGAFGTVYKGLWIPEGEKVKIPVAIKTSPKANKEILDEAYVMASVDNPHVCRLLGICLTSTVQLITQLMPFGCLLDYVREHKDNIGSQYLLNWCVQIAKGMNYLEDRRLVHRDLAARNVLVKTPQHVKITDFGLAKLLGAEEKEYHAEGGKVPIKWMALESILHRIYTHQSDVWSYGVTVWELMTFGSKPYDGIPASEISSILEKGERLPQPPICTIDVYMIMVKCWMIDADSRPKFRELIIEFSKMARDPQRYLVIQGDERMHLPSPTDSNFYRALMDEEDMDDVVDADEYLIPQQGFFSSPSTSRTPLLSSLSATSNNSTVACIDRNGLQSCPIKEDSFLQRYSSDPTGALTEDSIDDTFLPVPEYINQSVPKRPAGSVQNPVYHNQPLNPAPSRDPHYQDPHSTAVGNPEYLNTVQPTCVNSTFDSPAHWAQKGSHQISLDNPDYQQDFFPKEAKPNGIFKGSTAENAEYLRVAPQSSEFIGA

IC50 [1] [nM] | IC50 [2] [nM] | IC50 [3] [nM] | SMILES
1.1 | 0.5 | 2.4 | COc1cc2ncnc(-c3c[nH]nc3-c3ccccc3)c2cc1[C@H]1CCCCO1 (single isomer, unassigned) [Example 133, (R)-7-methoxy-4-(3-phenyl-1H-pyrazol-4-yl)-6-(tetrahydro-2H-pyran-2-yl)quinazoline or (S)-7-methoxy-4-(3-phenyl-1H-pyrazol-4-yl)-6-(tetrahydro-2H-pyran-2-yl)quinazoline]
9.3 | 5.6 | 9.5 | COc1cc2ncnc(-c3cn(C)nc3-c3ccccc3)c2cc1OC(=O)N1C[C@@H](C)OC[C@@H]1C (racemic) [Example 91, trans-rac-7-methoxy-4-(1-methyl-3-phenyl-1H-pyrazol-4-yl)quinazolin-6-yl (2R,5S)-2,5-dimethylmorpholine-4-carboxylate or cis-rac-7-methoxy-4-(1-methyl-3-phenyl-1H-pyrazol-4-yl)quinazolin-6-yl (2S,5S)-2,5-dimethylmorpholine-4-carboxylate]
2.6 | 1.1 | 4.2 | COc1cc2ncnc(-c3cn(C)nc3-c3ccccc3)c2cc1NC(=O)[C@@]1(C)CCCO1 (single isomer, unassigned) [Example 259, (R)—N-(7-methoxy-4-(1-methyl-3-phenyl-1H-pyrazol-4-yl)quinazolin-6-yl)-2-methyltetrahydrofuran-2-carboxamide or (S)—N-(7-methoxy-4-(1-methyl-3-phenyl-1H-pyrazol-4-yl)quinazolin-6-yl)-2-methyltetrahydrofuran-2-carboxamide]
1.1 | 0.7 | 1.8 | COc1cc2ncnc(-c3cn(C)nc3-c3ccccc3)c2cc1NC(=O)c1cnn(C(C)C)c1 [Example 208, 1-isopropyl-N-(7-methoxy-4-(1-methyl-3-phenyl-1H-pyrazol-4-yl)quinazolin-6-yl)-1H-pyazole-4-carboxamide]
2.1 | 0.9 | 1.4 | COc1cc2ncnc(-c3cn(CC(F)F)nc3-c3ccccc3)c2cc1OC(=O)N1CCOC[C@@H]1C [Example 76, 4-(1-(2,2-difluoroethyl)-3-phenyl-1H-pyrazol-4-yl)-7-methoxyquinazolin-6-yl (S)-3-methylmorpholine-4-carboxylate]
6.4 | 3.2 | 11.3 | COc1cc2ncnc(-c3cn(C)nc3-c3ccccc3)c2cc1OC(=O)N1CCO[C@H](C)[C@@H]1C [Example 94, 7-methoxy-4-(1-methyl-3-phenyl-1H-pyrazol-4-yl)quinazolin-6-yl (2R,3S)-2,3-dimethylmorpholine-4-carboxylate]
3.8 | 0.9 | 4.2 | COc1cc2ncnc(-c3cn(C)nc3-c3ccccc3)c2cc1NC(=O)[C@]1(C)CCCO1 (single isomer, unassigned) [Example 258, (S)—N-(7-methoxy-4-(1-methyl-3-phenyl-1H-pyrazol-4-yl)quinazolin-6-yl)-2-methyltetrahydrofuran-2-carboxamide or (R)—N-(7-methoxy-4-(1-methyl-3-phenyl-1H-pyrazol-4-yl)quinazolin-6-yl)-2-methyltetrahydrofuran-2-carboxamide]
1.4 | 1.1 | 0.6 | CCOc1cc2ncnc(-c3cn(C)nc3-c3ccccc3)c2cc1NC(=O)C1CC1 [Example 306, N-(7-ethoxy-4-(1-methyl-3-phenyl-1H-pyrazol-4-yl)quinazolin-6-yl)cyclopropanecarboxamide]
39 | 7.3 | 31.2 | CN(C)C12CC(C(=O)Nc3nc4c(-c5cn(C)nc5-c5ccc(F)cc5)ncnc4cc3OC(F)F)(C1)C2 [Example 466, N-[7-(difluoromethoxy)-4-[3-(4-fluorophenyl)-1-methyl-1H-pyrazol-4-yl]pyrido[3,2-d]pyrimidin-6-yl]-3-(dimethylamino) bicyclo[1.1.1]pentane-1-carboxamide]
1.6 | 0.9 | 1.5 | COc1cc2ncnc(-c3cn(C)nc3-c3ccccc3)c2cc1NC(=O)c1cn(C(F)(F)F)nc1C [Example 235, N-(7-methoxy-4-(1-methyl-3-phenyl-1H-pyrazol-4-yl)quinazolin-6-yl)-3-methyl-1-(trifluoromethyl)-1H-pyrazole-4-carboxamide]
1 | 0.8 | 1.1 | COc1cc2ncnc(-c3cn(C)nc3-c3ccccc3)c2nc1OC(C)c1cscn1 (stereo not drawn) [Example 31, 4-(1-((7-methoxy-4-(1-methyl-3-phenyl-1H-pyrazol-4-yl)pyrido[3,2-d]pyrimidin-6-yl)oxy)ethyl)thiazole]
4 | 2.1 | 11.6 | CCOc1cc2ncnc(-c3cn(C)nc3-c3ccccc3)c2cc1Cn1ncnc1C [Example 134, 7-ethoxy-6-((5-methyl-1H-1,2,4-triazol-1-yl)methyl)-4-(1-methyl-3-phenyl-1H-pyrazol-4-yl)quinazoline]

Second part, the molecule before the results:

SMILES | IC50 [1] [nM] | IC50 [2] [nM] | IC50 [3] [nM]
COc1cc2ncnc(-c3cn(C)nc3-c3ccccc3)c2cc1C(C)(C)O [Example 121, 2-(7-methoxy-4-(1-methyl-3-phenyl-1H-pyrazol-4-yl)quinazolin-6-yl) propan-2-ol] | 7.6 | 2.7 | 13.8
COc1cc2ncnc(-c3cn(C)nc3-c3ccccc3)c2cc1NC(=O)c1cncnc1 [Example 193, N-(7-methoxy-4-(1-methyl-3-phenyl-1H-pyrazol-4-yl)quinazolin-6-yl)pyrimidine-5-carboxamide] | 1.5 | 0.7 | 2.9
COc1cc2ncnc(-c3cn(C)nc3-c3ccccc3)c2cc1NC(=O)[C@H]1CCCN1C (single isomer, unassigned) [Example 242, (R)—N-(7-methoxy-4-(1-methyl-3-phenyl-1H-pyrazol-4-yl)quinazolin-6-yl)-1-methylpyrrolidine-2-carboxamide or (S)—N-(7-methoxy-4-(1-methyl-3-phenyl-1H-pyrazol-4-yl)quinazolin-6-yl)-1-methylpyrrolidine-2-carboxamide] | 7 | 2.1 | 6.6
COc1cc2ncnc(-c3cn(C)nc3-c3ccccc3F)c2nc1NC(=O)C1CC1 [Example 356, N-(4-(3-(2-fluorophenyl)-1-methyl-1H-pyrazol-4-yl)-7-methoxypyrido[3,2-d]pyrimidin-6-yl)cyclopropanecarboxamide] | 1.9 | 1.1 | 1.2
COc1cc2ncnc(-c3cn(C)nc3-c3ccccc3)c2cc1-c1cccc2[nH]ncc12 [Example 143, 6-(1H-indazol-4-yl)-7-methoxy-4-(1-methyl-3-phenyl-1H-pyrazol-4-yl)quinazoline] | 4.5 | 1.7 | 3.2
COc1cc2ncnc(-c3cn(C)nc3-c3ccccc3)c2cc1NC(=O)c1cnccc1F [Example 326, 4-fluoro-N-(7-methoxy-4-(1-methyl-3-phenyl-1H-pyrazol-4-yl)quinazolin-6-yl) nicotinamide] | 1.2 | 0.8 | 1
CCn1cc(C(=O)Nc2cc3c(-c4cn(C)nc4-c4ccccc4)ncnc3cc2OC)cn1 [Example 219, 1-ethyl-N-(7-methoxy-4-(1-methyl-3-phenyl-1H-pyrazol-4-yl)quinazolin-6-yl)-1H-pyrazole-4-carboxamide] | 1.9 | 1.1 | 1.7
COc1cc2ncnc(-c3cn(C)nc3-c3ccccc3)c2nc1OC(=O)N1CCOC[C@H]1C [Example 56, 7-methoxy-4-(1-methyl-3-phenyl-1H-pyrazol-4-yl)pyrido[3,2-d]pyrimidin-6-yl (R)-3-methylmorpholine-4-carboxylate] | 3.4 | 2.1 | 3
COc1cc2ncnc(-c3cn(CC(F)F)nc3-c3ccccc3)c2cc1NC(=O)c1cnsc1 [Example 271, N-(4-(1-(2,2-difluoroethyl)-3-phenyl-1H-pyrazol-4-yl)-7-methoxyquinazolin-6-yl)isothiazole-4-carboxamide] | 1.3 | 0.8 | 1
COc1cc2ncnc(-c3cn(C)nc3-c3ccccc3)c2cc1NC(=O)C1CC1 [Example 344, N-(7-methoxy-4-(1-methyl-3-phenyl-1H-pyrazol-4-yl)quinazolin-6-yl)cyclopropanecarboxamide] | 1.6 | 1 | 0.8
COc1cc2ncnc(-c3cn(C)nc3-c3ccccc3)c2cc1NC(=O)[C@@H](C)F (single isomer, unassigned) [Example 245, (R)-2-fluoro-N-(7-methoxy-4-(1-methyl-3-phenyl-1H-pyrazol-4-yl)quinazolin-6-yl) propenamide or (S)-2-fluoro-N-(7-methoxy-4-(1-methyl-3-phenyl-1H-pyrazol-4-yl)quinazolin-6-yl) propenamide] | 1.9 | 1 | 2.6
COc1cc2ncnc(-c3cnn(CC(F)F)c3-c3ccc(F)cc3)c2cc1C1(O)CC1 [Example 490] | 82 | 237 | 836
COc1cc2ncnc(-c3cn(C)nc3-c3ccccc3)c2cc1NC(=O)C1(C)CCC1 [Example 348, N-(7-methoxy-4-(1-methyl-3-phenyl-1H-pyrazol-4-yl)quinazolin-6-y1)-1-methylcyclobutane-1-carboxamide] | 3.2 | 1.7 | 3.4
